One compound from patent US20190307749A1, “Mitochondria-Division Inhibitor 1 Protects Against Amyloid-B Induced Mitochondrial Fragmentation and Synaptic Damage in Alzheimer's Disease” (Texas Tech University System, priority 2018, published 2019) can be followed below.

Test [1] has as its system N2a cells. Nature of the test: Cytochrome c oxidase activity. Type of test: cell-based, mouse. The protocol: (§1) Tissue culture: The N2a cells were grown for 3 days in a serum-free medium (1:1 mixture of DMEM and OptiMEM, plus penicillin and streptomycin [Invitrogen, Carlsbad, Calif., USA]) until the cells developed neuronal processes.
Cytochrome c oxidase activity: Cytochrome oxidase activity was measured in each of the 5 groups of N2a cells. Enzyme activity was assayed spectrophotometrically using a Sigma Kit (Sigma-Aldrich) following manufacturer's instructions. […] The decrease in absorbance at […] was recorded for 1-min reactions at 10-sec intervals. Cytochrome oxidase activity was measured according to the following formula: mU/mg total mitochondrial protein=(A/min sample−(A/min blank)×1.1 mg protein×21.84). The protein concentrations were determined following the BCA method.

In test [2] the test system is N2a cells. Nature of the test: Lipid peroxidation assay (4-hydroxy-2-nonenol, HNE-His ELISA). Type of test: cell-based, mouse. The protocol: as §1
Lipid peroxidation assay: Lipid peroxidates are unstable indicators of oxidative stress in the brain. The final product of lipid peroxidation is 4-hydroxy-2-nonenol (HNE), which was measured in the N2a cell lysates prepared from cell pellets of control and treatment groups. The inventors used an HNE-His ELISA kit (Cell BioLabs, Inc., San Diego, Calif., USA), as described in Manczak and Reddy. Briefly, freshly prepared protein as added to a 96-well protein binding plate and incubated overnight at 4° C. The protein then washed 3 times with a buffer. After the last wash, the anti-HNE-His antibody was added to the protein in the wells, incubated for 2 hours at room temperature, and then washed again 3 times. The samples were then incubated with a secondary antibody conjugated with peroxidase for 2 hours at room temperature, followed by incubation with an enzyme substrate. Optical density was measured (at 450 nm) to quantify the level of HNE.

[3] abbreviates: Mdivi1 24 hrs or Aβ42 20 μM 6 hrs alone, vs untreated N2a cells.

For the compound `COc1cc(-n2c(S)nc3ccccc3c2=O)c(Cl)cc1Cl` [Mdivi1, 3-(2,4-Dichloro-5-methoxyphenyl)-2,3-dihydro-2-thioxo-4(1H)-quinazolinone], the Cytochrome oxidase activity entry with N2a cells [1] (Aβ42 6 hrs then Mdivi1 24 hrs (Aβ42+Mdivi1), vs cells treated with Aβ42 alone) was “significantly increased”; with N2a cells [1] (Aβ42 6 hrs then Mdivi1 24 hrs (Aβ42+Mdivi1), vs untreated N2a cells), “increased levels”; in the test with N2a cells [1] (setting [3]), “increased levels”; in the test with N2a cells [1] (Mdivi1 24 hrs then Aβ42 6 hrs (Mdivi1+Aβ42), vs cells treated with Aβ42 alone) it was “significantly increased”; in the test on N2a cells [1] (Mdivi1 24 hrs then Aβ42 6 hrs (Mdivi1+Aβ42), vs untreated N2a cells) it was “increased levels”. For the same compound, the “Lipid peroxidation levels (4-hydroxy-2-nonenol)” value in the test with N2a cells [2] (Aβ42 6 hrs then Mdivi1 24 hrs (Aβ42+Mdivi1), vs N2a cells treated only with Aβ42) was “Significantly lower”; in the test on N2a cells [2] (setting [3]) it was “significantly lower”; in the test on N2a cells [2] (Mdivi1 24 hrs then Aβ42 6 hrs (Mdivi1+Aβ42), vs N2a cells treated only with Aβ42) it was “Significantly lower”.
